In ChEMBL document CHEMBL4007397, “Discovery of First-in-Class, Potent, and Orally Bioavailable Embryonic Ectoderm Development (EED) Inhibitor with Robust Anticancer Efficacy” (J Med Chem, 2017):
Converted amounts (≈) assume the structure as drawn. The source made the active and inactive calls. The calls are words filed in the database; no cut-off is given here.

Experiments:
Polycomb protein EED [1] = target: T1, Polycomb protein EED (Homo sapiens, UniProt O75530)
Description: Inhibition of recombinant N-terminal GST-tagged EED (76 to 441 residues) (unknown origin) expressed in Escherichia coli BL21-CodonPlus(DE3)-RIL assessed as reduction in SAH production using H3[21-44,K27Me0) peptide as substrate measured after 20 mins by LC/MS/MS method

Polycomb protein EED [2] = target: T1, Polycomb protein EED; experiment: Inhibition of EED in human G401 cells assessed as reduction in global H3K27me3 level after 48 hrs by ELISA; assay type: cell-based
Polycomb protein EED [3] = target: T1, Polycomb protein EED; experiment: Inhibition of recombinant N-terminal GST-tagged EED (76 to 441 residues) (unknown origin) expressed in Escherichia coli BL21-CodonPlus(DE3)-RIL incubated for 20 mins using EED-H3K27me3 peptide based AlphaScreen competition binding assay
KARPAS-422 [4] = experiment: Antiproliferative activity against human KARPAS422 cells harboring monoallelic Y641N EZH2 mutation assessed as reduction in cell viability measured every 3 to 4 days up to 14 days by Beckman Coulter-based method; assay type: functional
[5] = Protein binding in mouse plasma assessed as unbound fraction; assay type: ADME, cell-free
Mus musculus [6] = experiment: Dose normalized AUC in CD-1 mouse at 1 mg/kg, iv by LC-MS/MS analysis; assay type: ADME, organism-based; settings: in vivo
Mus musculus [7] = experiment: Dose normalized AUC in CD-1 mouse at 2 mg/kg, po by LC-MS/MS analysis; assay type: ADME, organism-based; settings: in vivo
Mus musculus [8] = experiment: Dose normalized unbound AUC in CD-1 mouse at 2 mg/kg, po by LC-MS/MS analysis; assay type: ADME, organism-based; settings: in vivo
[9] = (§1) Oral bioavailability in CD-1 mouse at 2 mg/kg by LC-MS/MS analysis; assay type: ADME, organism-based; settings: CD-1, mouse, in vivo
in vivo [10] = settings: CD-1, mouse, plasma, iv, 1 mg/kg
in vivo [11] = settings: CD-1, mouse, iv, 1 mg/kg
Description: Volume of distribution at steady state in CD-1 mouse at 1 mg/kg, iv or 2 mg/kg, po by LC-MS/MS analysis

in vivo [12] = settings: CD-1, mouse
[13] = Hepatic extraction ratio in mouse liver microsomes; assay type: ADME, microsome; settings: read-out: ERH
Mus musculus [14] = experiment: as §1; assay type: ADME, organism-based; settings: mouse, in vivo
[15] = Permeability across apical to basolateral side of human Caco2 cells; assay type: ADME, cell-based; settings: Caco-2, read-out: permeability
[16] = Equilibrium solubility of the compound by high-throughput assay; assay type: physicochemical
[17] = Solubility of the crystalline form of compound at pH 7; assay type: physicochemical
[18] = Solubility of the crystalline form of compound at pH 3; assay type: physicochemical
[19] = Solubility of the crystalline form of compound in simulated gastric fluid; assay type: physicochemical
[20] = Solubility of the crystalline form of compound in fasted state simulated intestinal fluid; assay type: physicochemical
[21] = Protein binding in Sprague-Dawley rat plasma assessed as unbound fraction; assay type: ADME, cell-free
[22] = Plasma protein binding in Beagle dog assessed as unbound fraction; assay type: ADME, cell-free, Canis lupus familiaris
[23] = Protein binding in human plasma assessed as unbound fraction; assay type: ADME, cell-free
Rattus norvegicus = experiment: Dose normalized unbound AUC in Sprague-Dawley rat at 2 mg/kg, po by LC-MS/MS analysis; assay type: ADME, organism-based; settings: in vivo
Canis familiaris = experiment: Dose normalized unbound AUC in Beagle dog at 2 mg/kg, po by LC-MS/MS analysis; assay type: ADME, organism-based, Canis lupus familiaris; settings: in vivo
[24] = Total clearance in Sprague-Dawley rat at 1 mg/kg, iv or 2 mg/kg, po by LC-MS/MS analysis; assay type: ADME, organism-based; settings: in vivo
[25] = Total clearance in Beagle dog at 1 mg/kg, iv or 2 mg/kg, po by LC-MS/MS analysis; assay type: ADME, organism-based, Canis lupus familiaris; settings: in vivo
[26] = Oral bioavailability in Sprague-Dawley rat at 2 mg/kg by LC-MS/MS analysis; assay type: ADME, organism-based; settings: in vivo
[27] = Oral bioavailability in Beagle dog at 2 mg/kg by LC-MS/MS analysis; assay type: ADME, organism-based, Canis lupus familiaris; settings: in vivo
Mus musculus [28] = experiment: Toxicity in CD-1 mouse assessed as effect on body weight at 300 mg/kg, po BID after 14 day; assay type: organism-based; settings: in vivo, 336 h
KARPAS-422 [29] = experiment: Antitumor activity against human KARPAS422 cells xenografted in Balb/C nude mouse assessed as tumor regression at 300 mg/kg, po BID for 34 days; assay type: functional, organism-based
Mus musculus [30] = experiment: Antitumor activity against human KARPAS422 cells xenografted in Balb/C nude mouse assessed as reduction in tumor volume at 1.5 to 40 mg/kg, po BID for 2 weeks; assay type: functional, organism-based
Mus musculus [31] = experiment: In-vivo inhibition of EED in Balb/C nude mouse xenografted with human KARPAS422 cells assessed as decrease in global H3K27me3 level at 1.5 to 40 mg/kg, po BID for 21 days; assay type: functional, organism-based

T1 sequence (O75530 whole entry): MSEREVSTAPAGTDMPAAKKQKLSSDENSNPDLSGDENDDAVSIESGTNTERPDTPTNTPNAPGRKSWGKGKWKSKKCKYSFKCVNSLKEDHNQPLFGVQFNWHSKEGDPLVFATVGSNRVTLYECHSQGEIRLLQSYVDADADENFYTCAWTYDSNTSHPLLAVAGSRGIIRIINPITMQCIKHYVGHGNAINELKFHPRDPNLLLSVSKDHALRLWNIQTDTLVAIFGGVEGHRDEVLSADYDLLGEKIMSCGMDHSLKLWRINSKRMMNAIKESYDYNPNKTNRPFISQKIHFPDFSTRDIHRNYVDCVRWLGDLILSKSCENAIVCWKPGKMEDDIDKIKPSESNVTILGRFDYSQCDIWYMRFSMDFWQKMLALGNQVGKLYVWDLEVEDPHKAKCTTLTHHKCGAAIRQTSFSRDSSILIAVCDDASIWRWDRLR

## N#Cc1c2c(c3nncn3c1Cl)CN(Cc1ccccc1)CC2
Polycomb protein EED [1]
  IC50: > 100000 nM

## COc1ccccc1CNc1c(C#N)cc(-c2ccc(CN(C)C)cc2)c2nncn12
Polycomb protein EED [1]
  IC50: 14900 nM

## CN(C)Cc1ccc(-c2cc(C#N)c(NCc3ccno3)n3cnnc23)cc1
Polycomb protein EED [1]
  IC50: 69 nM

## CN(C)Cc1ccc(-c2cnc(NCc3ccccc3)n3cnnc23)cc1
Polycomb protein EED [1]
  IC50: 49 nM

## CN(C)Cc1ccc(-c2cc(C#N)c(NCc3ccon3)n3cnnc23)cc1
Polycomb protein EED [1]
  IC50: 69 nM

## N#Cc1c2c(c3nncn3c1NCc1ccco1)CN(Cc1ccccc1)CC2
Polycomb protein EED [1]
  IC50: 4030 nM
Polycomb protein EED [2]
  IC50: 3280 nM
Polycomb protein EED [3]
  IC50: 620 nM

## CN(C)Cc1ccc(-c2cc(C#N)c(NCc3ccccc3)n3cnnc23)cc1
Polycomb protein EED [1]
  IC50: 21800 nM

## CN(C)Cc1ccc(-c2cnc(NCc3ccno3)n3cnnc23)cc1
Polycomb protein EED [1]
  IC50: 130 nM

## CN(C)Cc1ccc(-c2cc(C#N)c(NCc3ccco3)n3cnnc23)cc1
Polycomb protein EED [1]
  IC50: 9 to 13 nM

## COc1ccccc1CNc1ncc(-c2ccc(CN(C)C)cc2)c2nncn12
Polycomb protein EED [1]
  IC50: 94 nM

## Cc1ccsc1CNc1ncc(-c2ccc(CN(C)C)cc2)c2nncn12
Polycomb protein EED [1]
  IC50: 49 nM

## N#Cc1cc(-c2ccccc2)c2nncn2c1NCc1ccco1
Polycomb protein EED [1]
  IC50: 62 nM

## CN(C)Cc1ccc(-c2cnc(NCc3ccoc3)n3cnnc23)cc1
Polycomb protein EED [1]
  IC50: 19 nM

## CN(C)Cc1ccc(-c2cnc(NCc3ccco3)n3cnnc23)cc1
Polycomb protein EED [1]
  IC50: 13 nM

## CN(C)Cc1ccc(-c2cc(C#N)c(NCc3ccc(F)s3)n3cnnc23)cc1
Polycomb protein EED [1]
  IC50: 510 nM

## N#Cc1ccc2nncn2c1NCc1ccco1
Polycomb protein EED [1]
  IC50: 1000 nM

## CCN(c1cc(-c2ccc(CN3CCOCC3)cc2)cc(C(=O)NCc2c(C)cc(C)[nH]c2=O)c1C)C1CCOCC1 [TAZEMETOSTAT]
KARPAS-422 [4]
  IC50: 12 nM
[5]
  fraction unbound: 0.014
Mus musculus [6]
  AUC/dose: 1303 nM·h
Mus musculus [7]
  AUC/dose: 254 nM·h
Mus musculus [8]
  fAUC/dose: 4 nM·h
[9]
  bioavailability: 20%
In vivo [10]
  clearance: 22 mL/min/kg
In vivo [11]
  Vd: 1.2 L/kg
In vivo [12]
  half-life: 1.6 h

## CN(C)Cc1ccc(-c2cc(C#N)c(NCc3sccc3Cl)n3cnnc23)cc1
Polycomb protein EED [1]
  IC50: 2340 nM

## c1ccc(-c2ccc(NCc3ccco3)n3cncc23)cc1
Polycomb protein EED [1]
  IC50: 14800 nM

## Cc1ccc(CNc2c(C#N)cc(-c3ccc(CN(C)C)cc3)c3nncn23)s1
Polycomb protein EED [1]
  IC50: 2220 nM

## CN(C)Cc1ccc(-c2cc(C#N)c(NCc3cccs3)n3cnnc23)cc1
Polycomb protein EED [1]
  IC50: 20 nM

## CN(C)Cc1ccc(-c2cc(C#N)c(NCc3cnco3)n3cnnc23)cc1
Polycomb protein EED [1]
  IC50: 150 nM

## c1coc(CNc2ncc(-c3ccc(CN4CCCC4)cc3)c3nncn23)c1
Polycomb protein EED [1]
  IC50: 7 nM
Polycomb protein EED [2]
  IC50: 32 nM
KARPAS-422 [4]
  IC50: 88 nM
[13]
  hepatic extraction ratio: 0.52
[5]
  fraction unbound: 0.381
Mus musculus [6]
  AUC/dose: 765 nM·h
Mus musculus [7]
  AUC/dose: 531 nM·h
Mus musculus [8]
  fAUC/dose: 202 nM·h
[9]
  bioavailability: 71%

## CN(C)Cc1ccc(-c2cnc(NCc3ccc(F)s3)n3cnnc23)cc1
Polycomb protein EED [1]
  IC50: 150 nM

## CN(C)Cc1ccc(-c2cnc(NCc3cnco3)n3cnnc23)cc1
Polycomb protein EED [1]
  IC50: 290 nM

## CN(C)Cc1ccc(-c2cnc(NCc3sccc3Cl)n3cnnc23)cc1
Polycomb protein EED [1]
  IC50: 53 nM

## N#Cc1cc(-c2ccccc2F)c2nncn2c1NCc1ccco1
Polycomb protein EED [1]
  IC50: 30 nM
Polycomb protein EED [2]
  IC50: 210 nM
KARPAS-422 [4]
  IC50: 76 nM
[13]
  hepatic extraction ratio: 0.8
[5]
  fraction unbound: 0.0281
Mus musculus [6]
  AUC/dose: 1751 nM·h
Mus musculus [7]
  AUC/dose: 714 nM·h
Mus musculus [8]
  fAUC/dose: 20.1 nM·h
[9]
  bioavailability: 42%

## CN(C)Cc1ccc(-c2cnc(NCc3cccs3)n3cnnc23)cc1
Polycomb protein EED [1]
  IC50: 93 nM

## c1ccc(-c2cnc(NCc3ccco3)n3cnnc23)cc1
Polycomb protein EED [1]
  IC50: 52 nM

## Cc1ccsc1CNc1c(C#N)cc(-c2ccc(CN(C)C)cc2)c2nncn12
Polycomb protein EED [1]
  IC50: 21800 nM

## CN(C)Cc1ccc(-c2cc(C#N)c(NCc3ccoc3)n3cnnc23)cc1
Polycomb protein EED [1]
  IC50: 9 nM

## Cc1ccc(CNc2ncc(-c3ccc(CN(C)C)cc3)c3nncn23)s1
Polycomb protein EED [1]
  IC50: 12400 nM

## CN(C)Cc1ccc(-c2cnc(NCc3ccon3)n3cnnc23)cc1
Polycomb protein EED [1]
  IC50: 770 nM

## CS(=O)(=O)c1ccc(-c2cnc(NCc3ccco3)n3cnnc23)cc1
Polycomb protein EED [1]
  IC50: 22 nM
Polycomb protein EED [2]
  IC50: 220 nM
KARPAS-422 [4]
  IC50: 80 nM
[5]
  fraction unbound: 0.144 to 0.15
Mus musculus [6]
  AUC/dose: 534 nM·h
Mus musculus [7]
  AUC/dose: 5648 nM·h
Mus musculus [8]
  fAUC/dose: 813 nM·h
Mus musculus [14]
  F: 109%
[15]
  Papp A→B: 3 ×10⁻⁶ cm/s
[16]
  solubility thermodynamic: 12 µM (≈ 4.43 µg/mL)
[17]
  solubility: 25 µg/mL (≈ 67.7 µM)
[18]
  solubility: 26 µg/mL (≈ 70.4 µM)
[19]
  solubility: 55 µg/mL (≈ 149 µM)
[20]
  solubility thermodynamic: 35 µg/mL (≈ 94.7 µM)
[21]
  fraction unbound: 0.08
[22]
  fraction unbound: 0.24
[23]
  fraction unbound: 0.13
Rattus norvegicus
  fAUC/dose: 1871 nM·h
Canis familiaris
  fAUC/dose: 1907 nM·h
[24]
  clearance: 14 mL/min/kg
[25]
  clearance: 16 mL/min/kg
[26]
  bioavailability: 60%
[27]
  bioavailability: 68%
Mus musculus [28]
  Activity: Non-Toxic
KARPAS-422 [29]
  Activity: Active
Mus musculus [30]
  Activity: Active
Mus musculus [31]
  Activity: Dose-dependent effect
In vivo [10]
  clearance: 8 mL/min/kg
In vivo [11]
  Vd: 0.8 L/kg
In vivo [12]
  half-life: 2.2 h
